Measured values reported in patent US11401286B2 (Tetra Discovery Partners, LLC, priority 2012, dated 2022).
Structures can show the parent of a compound that is named as a salt. Where two headings read alike, the source gives them in different places.

Biological target: PDE4D7 (Homo sapiens (Human), UniProt Q08499)
[1] = read-out: PDE4D7 IC50, PDE4D7 without asterisk

Chain of PDE4D7 (Q08499 other isoform, or with tags, fused parts or gaps): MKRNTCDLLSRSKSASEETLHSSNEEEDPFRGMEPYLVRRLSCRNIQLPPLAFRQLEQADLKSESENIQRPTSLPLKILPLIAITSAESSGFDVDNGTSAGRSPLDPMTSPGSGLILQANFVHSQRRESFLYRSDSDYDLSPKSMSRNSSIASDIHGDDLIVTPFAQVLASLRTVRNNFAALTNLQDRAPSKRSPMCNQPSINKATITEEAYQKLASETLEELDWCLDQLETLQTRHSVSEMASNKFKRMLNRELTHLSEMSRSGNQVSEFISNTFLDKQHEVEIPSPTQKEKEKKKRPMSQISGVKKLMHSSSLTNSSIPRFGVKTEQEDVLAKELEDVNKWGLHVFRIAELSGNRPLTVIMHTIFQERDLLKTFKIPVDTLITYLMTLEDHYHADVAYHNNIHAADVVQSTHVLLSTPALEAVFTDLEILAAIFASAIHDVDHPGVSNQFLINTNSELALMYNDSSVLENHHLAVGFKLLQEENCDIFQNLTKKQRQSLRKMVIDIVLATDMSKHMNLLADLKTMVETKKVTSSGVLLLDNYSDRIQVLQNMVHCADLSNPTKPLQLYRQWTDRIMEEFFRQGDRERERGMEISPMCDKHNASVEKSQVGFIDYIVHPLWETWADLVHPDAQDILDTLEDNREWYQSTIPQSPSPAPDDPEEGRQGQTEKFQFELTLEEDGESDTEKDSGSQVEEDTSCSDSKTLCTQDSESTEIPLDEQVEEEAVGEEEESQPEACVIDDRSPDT

IC50 [1] [µM] | SMILES | also measured
> 1 | NC(=O)Cc1ccc(Nc2nc(OC3CCCC3)nc3c2CCC3)cc1 [Example 232, 2-(4-((2-(Cyclopentyloxy)-6,7-dihydro-5H-cyclopenta[d]pyrimidin-4-yl)amino)phenyl)acetamide] | –
> 1 | CCc1nc(Oc2ccc(CC(N)=O)cc2)nc(-c2cccc(Cl)c2)n1 [Example 61, 2-(4-((4-(3-chlorophenyl)-6-ethyl-1,3,5-triazin-2-yl)oxy)phenyl)acetamide] | –
> 1 | CC(C)c1nc(Nc2ccc(F)cc2)nc(-c2ccc(Cl)s2)n1 [Example 26, 4-(5-chlorothiophen-2-yl)-N-(4-fluorophenyl)-6-isopropyl-1,3,5-triazin-2-amine] | –
> 1 | OCCc1ccc(Nc2cc(-c3cccc(Cl)c3)nc(C3CC3)c2)cc1 [Example 140, 2-(4-((2-(3-Chlorophenyl)-6-cyclopropylpyridin-4-yl)amino)phenyl)ethanol hydrochloride] | –
> 1 | CCc1c(C)nc(-c2ccc(Cl)s2)nc1Nc1ccc(CC(=O)NC)cc1 [Example 308, 2-[4-[[2-(5-Chloro-2-thienyl)-5-ethyl-6-methyl-pyrimidin-4-yl]amino]phenyl]-N-methyl-acetamide] | –
> 1 | OC(Cc1ccc(Nc2nc(-c3cccc(Cl)c3)nc3c2CCC3)cc1)C(F)(F)F (stereo not shown) [Example 176, 3-(4-((2-(3-Chlorophenyl)-6,7-dihydro-5H-cyclopenta[d]pyrimidin-4-yl)amino)phenyl)-1,1,1-trifluoropropan-2-ol] | –
< 1 | O=S1(=O)CCCc2nc(-c3cccc(Cl)c3)nc(Nc3ccc(Cc4nn[nH]n4)cc3)c21 [Example 316, 2-(3-Chlorophenyl)-5,5-dioxo-N-[4-(2H-tetrazol-5-ylmethyl)phenyl]-7,8-dihydro-6H-thiopyrano[3,2-d]pyrimidin-4-amine] | –
> 1 | C[C@H](O)Cc1ccc(Nc2nc(-c3cccc(Cl)c3)nc3c2CCC3)cc1 [Example 173, (S)-1-(4-((2-(3-Chlorophenyl)-6,7-dihydro-5H-cyclopenta[d]pyrimidin-4-yl)amino)phenyl)propan-2-ol] | –
> 1 | COC(=O)Cc1ccc(Nc2cc(N3CCCC3)nc3c2CCC3)cc1 [Example 237, Methyl 2-(4-((2-(pyrrolidin-1-yl)-6,7-dihydro-5H-cyclopenta[b]pyridin-4-yl)amino)phenyl)acetate hydrochloride] | –

The remaining lines, values behind:

SMILES | IC50 [1] [µM] | also measured
NC(=O)Cc1ccc(Cc2cc(-c3cccc(Cl)c3)nc(C(F)(F)F)c2)cc1 [Example 144, 2-(4-((2-(3-Chlorophenyl)-6-(trifluoromethyl)pyridin-4-yl)methyl)phenyl)acetamide] | > 1 | –
NC(=O)Cc1ccc(Nc2cc(C3CC3)nc(-c3cccc(Cl)c3)n2)cc1 [Example 207, 2-(4-((2-(3-Chlorophenyl)-6-cyclopropylpyrimidin-4-yl)amino)phenyl)acetamide] | < 1 | –
NC(=O)Cc1ccc(Nc2nc(-c3cccc(Cl)c3)nc3c2CCCC3)cc1 [Example 234, 2-(4-((2-(3-Chlorophenyl)-5,6,7,8-tetrahydroquinazolin-4-yl)amino)phenyl)acetamide] | < 1 | –
CNC(=O)Cc1ccc(Nc2cc(-c3cccc(Cl)c3)nc3c2CCC3)cc1 [Example 120, 2-(4-((2-(3-chlorophenyl)-6,7-dihydro-5H-cyclopenta[b]pyridin-4-yl)amino)phenyl)-N-methylacetamide hydrochloride] | > 1 | –
N#CCc1ccc(Nc2c(Cl)c(-c3cccc(Cl)c3)nc3c2CCC3)cc1 [Example 291, 2-(4-((3-Chloro-2-(3-chlorophenyl)-6,7-dihydro-5H-cyclopenta[b]pyridin-4-yl)amino)phenyl)acetonitrile hydrochloride] | > 1 | –
CCCNC(=O)Cc1ccc(Nc2nc(-c3ccccc3)nc3c2S(=O)(=O)CCC3)cc1 [Example 270, 2-(4-((5,5-dioxido-2-phenyl-7,8-dihydro-6H-thiopyrano[3,2-d]pyrimidin-4-yl)amino)phenyl)-N-propylacetamide] | < 1 | –
Cc1cccc(-c2cc(Nc3ccc(CC(N)=O)cc3)c3c(n2)CCC3)c1 [Example 159, 2-(4-((2-(m-Tolyl)-6,7-dihydro-5H-cyclopenta[b]pyridin-4-yl)amino)phenyl)acetamide hydrochloride] | > 1 | –
NC(=O)Cc1ccc(Nc2cc(S(=O)(=O)C3CCCC3)nc3c2CCC3)cc1 [Example 259, 2-(4-((2-(Cyclopentylsulfonyl)-6,7-dihydro-5H-cyclopenta[b]pyridin-4-yl)amino)phenyl)acetamide] | > 1 | –
COC(=O)Cc1ccc(Cc2cc(C3CC3)nc(-c3cccc(Cl)c3)n2)cc1 [Example 208, Methyl 2-(4-((2-(3-chlorophenyl)-6-cyclopropylpyrimidin-4-yl)methyl)phenyl)acetate] | – | IC50: > 1 µM
CCc1cc(Oc2ccc(CCO)cc2)nc(-c2cccc(Cl)c2)n1 [Example 182, 2-(4-((2-(3-Chlorophenyl)-6-ethylpyrimidin-4-yl)oxy)phenyl)ethanol] | – | IC50 (read-out: PDE4D7 IC50): < 1 µM
OCC[C@H]1CC[C@H](Nc2cc(-c3cccc(Cl)c3)nc3c2CCC3)CC1 [Example 97, Trans-2-(4-((2-(3-chlorophenyl)-6,7-dihydro-5H-cyclopenta[b]pyridin-4-yl)amino)cyclohexyl)ethanol hydrochloride] | > 1 | –
COC(=O)Cc1cccc(Nc2cc(-c3cccc(Cl)c3)nc3c2CCC3)c1 [Example 100, Methyl 2-(3-((2-(3-chlorophenyl)-6,7-dihydro-5H-cyclopenta[b]pyridin-4-yl)amino)phenyl)acetate hydrochloride] | > 1 | –
Cc1ccc(Cc2cc(-c3cccc(Cl)c3)nc3c2CCC3)cc1 [Example 289, 2-(3-Chlorophenyl)-4-(4-methylbenzyl)-6,7-dihydro-5H-cyclopenta[b]pyridine hydrochloride] | > 1 | –
OCCc1cccc(Nc2cc(-c3cccc(Cl)c3)nc3c2CCC3)c1 [Example 102, 2-(3-((2-(3-Chlorophenyl)-6,7-dihydro-5H-cyclopenta[b]pyridin-4-yl)amino)phenyl)ethanol hydrochloride] | > 1 | –
Clc1cccc(-c2nc3c(c(Nc4ccccc4)n2)CCC3)c1 [Example 166, 2-(3-Chlorophenyl)-N-phenyl-6,7-dihydro-5H-cyclopenta[d]pyrimidin-4-amine] | > 1 | –
CCc1cc(Nc2ccc(CC(N)=O)cc2)nc(C2CCCC2)n1 [Example 221, 2-(4-((2-Cyclopentyl-6-ethylpyrimidin-4-yl)amino)phenyl)acetamide] | < 1 | –
NC(=O)Cc1ccc(Nc2cc(C(F)(F)F)nc(-c3cccc(Cl)c3)n2)cc1 [Example 220, 2-(4-((2-(3-Chlorophenyl)-6-(trifluoromethyl)pyrimidin-4-yl)amino)phenyl)acetamide] | < 1 | –
O=C(O)CCc1ccc(Nc2nc(-c3cccc(Cl)c3)nc3c2CCC3)cc1 [Example 16, 3-[4-[[2-(3-Chlorophenyl)-6,7-dihydro-5H-cyclopenta[d]pyrimidin-4-yl]amino]phenyl]propanoic acid] | > 1 | –
NC(=O)Cc1ccc(Nc2cc(-c3ccc(F)c(Cl)c3)nc3c2CCC3)cc1 [Example 150, 2-(4-((2-(3-Chloro-4-fluorophenyl)-6,7-dihydro-5H-cyclopenta[b]pyridin-4-yl)amino)phenyl)acetamide hydrochloride] | > 1 | –
